These are literature values, as cited in paper PMC9968064, “First Synthesis of DBU-Conjugated Cationic Carbohydrate Derivatives and Investigation of Their Antibacterial and Antifungal Activity” (International Journal of Molecular Sciences, 2023).

The subject of series [1] is Candida albicans (ATCC 10231). Set-up: method as in PMID 32349998, PMID 25392352. As to conditions: reference antifungal; cited from earlier work.
Series [2] has as its system Escherichia coli (ATCC 8739). Also on record: method as in PMID 24144185. As to conditions: reference antibiotics; cited from earlier work.
Series [3] relates to Staphylococcus aureus ssp. aureus (ATCC 6538). Set-up: method as in PMID 22866984. As to conditions: reference antibiotics; cited from earlier work.

Consider `C[C@@H]1[C@H](O)[C@@H](C)/C=C/C=C/C=C/C=C/C=C/C=C/C=C/[C@H](O[C@@H]2O[C@H](C)[C@@H](O)[C@H](N)[C@@H]2O)C[C@@H]2O[C@](O)(C[C@@H](O)C[C@@H](O)[C@H](O)CC[C@@H](O)C[C@@H](O)CC(=O)O[C@H]1C)C[C@H](O)[C@H]2C(=O)O` [Amphotericin B], for which the “MIC Candida albicans (ATCC 10231)” value in series [1] is <0.5 [46, 47] µg/mL.
As to `CNC(C)C1CCC(N)C(OC2C(N)CC(N)C(OC3OCC(C)(O)C(NC)C3O)C2O)O1` (stereo not drawn) [Gentamicin], the “MIC Escherichia coli (ATCC 8739)” value in series [2] was 8 [42] µg/mL. The “MIC Staphylococcus aureus (ATCC 6538)” value in series [3] is 8 [43, 44, 45] µg/mL.
